Reference: US20170304002A1, “ELECTROMANIPULATION OF PROTEINS USING NANOSECOND PULSED ELECTRIC FIELDS” (Old Dominion University, priority 2014, published 2017)

Tested on: Jurkat A3 cells
Experiment: nsPEF-induced dissipation of mitochondria membrane potential (ΔΨm), TMRE flow cytometry
Format: cell-based
Procedure: Wildtype Jurkat T-lymphocytes (clone A3) were obtained from ATCC (Manassas, Va.) and cultured in RPMI 1640 medium (ATCC) including about 10% fetal bovine serum (FBS) (Atlanta Biologist). N1-S1 HCC cells were obtained from ATCC and cultured in Iscove's Modified Delbecco's Medium including FBS. Both cell lines were maintained in media including about 1% L-glutamine and about 1% penicillin and streptomycin. Cells were treated in cuvettes in cell culture media with nsPEFs using pulse generators, such as, for example as described in Transient features in nanosecond pulsed electric fields differentially modulate mitochondria and viability, PLoS One 7 (2012).
Loss in ΔΨm was determined by staining cells with either 2 μM JC-1 (5′,6, 6′-tetrachloro-1,1′,3,3′-tetraethylbenzimidazole-carbocyanideiodine, Molecular Probes, Eugene, Oreg., USA), where JC-1 changes from red to green when ΔΨm decreases (data not shown) or with 200 […] TMRE (tetramethylrhodamine ethyl ester, Immunochemistry Technologies LLC, Bloomington, Minn.), where TMRE red emissions decrease when ΔΨm decreases. To determine effects of Ca^2+ on ΔΨm, cells were pre-incubated with or without 20 μM BAPTA-AM and/or 5 mM EGTA for about 30 min before nsPEF treatment. The ΔΨm was determined about 10 min after treatment with nsPEFs. The TMRE red fluorescence was determined (10,000 cells) on a Becton Dickinson FacsAria flow cytometer. Although data shown are with TMRE, near identical results were obtained with JC-1. […]
Jurkat cells (A3 clone) were pre-incubated with TMRE (200 nM) for 20 min. […] Cell were then analyzed by flow cytometry 10 min after treatment for red (TMRE, ΔΨm) fluorescent and expressed as percent cells showing fluorescence (Y-axis) at each electric field strength (X-axis). In the presence of 3 mM Ca^2+ (absence of EGTA) there was an electric field-dependent decrease in cells expressing a high ΔΨm as indicated by decreases in TMRE fluorescence. […] Statistical significance was determined by the paired Student's t-test (p<0.05; n=3). […]

| Structure (SMILES) | effect on nsPEF-induced loss of ΔΨm (percent cells showing TMRE fluorescence) (30 min pre-incubation, EGTA 5 mM, BAPTA-AM 20 μM, ten 60 ns pulses, all electric fields up to 60 kV/cm, 10 min after treatment) | block of nsPEF-induced loss of ΔΨm at high electric field (electric field ≧40 kV/cm, EGTA 5 mM, BAPTA-AM 20 μM, ten 60 ns pulses) | chelation of Ca2+ influx from the extracellular environment by BAPTA-AM alone (BAPTA-AM 20 μM alone, data not shown) |
| --- | --- | --- | --- |
| O=C(O)CN(CCOCCOCCN(CC(=O)O)CC(=O)O)CC(=O)O [EGTA] | prevented losses in ΔΨm | neither EGTA nor EGTA/BAPTA completely blocked loss of ΔΨm | – |
| CC(=O)OCOC(=O)CN(CC(=O)OCOC(C)=O)c1ccccc1OCCOc1ccccc1N(CC(=O)OCOC(C)=O)CC(=O)OCOC(C)=O [BAPTA-AM] | – | – | not sufficient to chelate influxes of Ca^2+ from the extracellular environment |
